Data reported in ChEMBL document CHEMBL1141145, “A chiral benzoquinolizine-2-carboxylic acid arginine salt active against vancomycin-resistant Staphylococcus aureus” (J Med Chem, 2005).
In brackets after ≈: the same amount, converted by molar mass.

Experiments:
[1] = tested on: Staphylococcus aureus; assay: Minimum inhibitory concentration against Staphylococcus aureus gyrA/grlA double mutant; assay type: functional
[2] = tested on: Staphylococcus aureus; assay: Minimum inhibitory concentration against Staphylococcus aureus gyrA mutant; assay type: functional
[3] = tested on: Staphylococcus aureus; assay: Minimum inhibitory concentration against Staphylococcus aureus grlA mutant; assay type: functional
[4] = tested on: Staphylococcus aureus; assay: Minimum inhibitory concentration against Staphylococcus aureus ISP 794 (wild type); assay type: functional
[5] = biological target: T1, DNA gyrase (Staphylococcus aureus, UniProt P0A0K8+P20831)
[6] = biological target: DNA topoisomerase 4 subunit A (Staphylococcus aureus, UniProt P0C1U9)
[7] = biological target: DNA topoisomerase 4 subunit A (Staphylococcus aureus) (UniProt P0C1U9)
[8] = biological target: DNA gyrase (Staphylococcus aureus) (UniProt P0A0K8+P20831)
[9] = physchem
[10] = tested on: Streptococcus agalactiae; assay: Minimum inhibitory concentration against Streptococcus agalactiae ATCC 13813; assay type: functional
[11] = tested on: Staphylococcus saprophyticus; assay: Minimum inhibitory concentration against Staphylococcus saprophyticus ATCC 15305; assay type: functional
[12] = tested on: Enterococcus faecalis; assay: Minimum inhibitory concentration against Enterococcus faecalis ATCC 29212; assay type: functional
[13] = tested on: Klebsiella pneumoniae; assay: Minimum inhibitory concentration against Klebsiella pneumoniae ATCC 10031; assay type: functional
[14] = tested on: Phocaeicola vulgatus; assay: Minimum inhibitory concentration against Bacteroides vulgatus ATCC 29327; assay type: functional
[15] = tested on: Staphylococcus aureus; assay: Mutant prevention concentration aganist methicillin resistant Staphylococcus aureus-5023 done for 48 hr at 37 degree C with compound; assay type: functional
[16] = tested on: Staphylococcus aureus; assay: Minimum inhibitory concentration against Staphylococcus aureus ATCC 25923; assay type: functional
[17] = tested on: Streptococcus sanguinis; assay: Minimum inhibitory concentration against Streptococcus sanguis ATCC 10556; assay type: functional
[18] = tested on: Streptococcus pyogenes; assay: Minimum inhibitory concentration against Streptococcus pyogenes ATCC 19615; assay type: functional
[19] = tested on: Staphylococcus aureus; assay: Frequency of resistance emergence for methicillin resistant Staphylococcus aureus-32; assay type: functional
[20] = tested on: Staphylococcus aureus; assay: Frequency of resistance emergence for methicillin resistant Staphylococcus aureus-33; assay type: functional
[21] = tested on: Staphylococcus aureus; assay: Frequency of resistance emergence for methicillin resistant Staphylococcus aureus-5023; assay type: functional
[22] = tested on: Staphylococcus aureus; assay: Mutant prevention concentration against methicillin resistant Staphylococcus aureus-32 done for 48 h at 37 degree C with compound; assay type: functional
[23] = tested on: Staphylococcus aureus; assay: Mutant prevention concentration aganist methicillin resistant Staphylococcus aureus-33 done for 48 hr at 37 degree C with compound; assay type: functional
[24] = tested on: Staphylococcus aureus; assay: Ratio of MPC to MIC aganist methicillin resistant Staphylococcus aureus-32; assay type: functional
[25] = tested on: Staphylococcus aureus; assay: Ratio of MPC to MIC against methicillin resistant Staphylococcus aureus-33; assay type: functional
[26] = tested on: Staphylococcus aureus; assay: Ratio of MPC to MIC against methicillin resistant Staphylococcus aureus-5023; assay type: functional
[27] = tested on: Staphylococcus haemolyticus; assay: Minimum inhibitory concentration against Staphylococcus haemolyticus ATCC 29970; assay type: functional
[28] = physchem; details: octanol/water, pH 7.4
[29] = physchem; remark: listed apart in the source
[30] = physchem; details: octanol/water, pH 2
[31] = tested on: Streptococcus pneumoniae; assay: microbe, parasite or virus in culture; details: ATCC 6303
[32] = tested on: Streptococcus pneumoniae; assay: microbe, parasite or virus in culture; details: ATCC 49619
[33] = tested on: Escherichia coli; assay: microbe, parasite or virus in culture; details: ATCC 25922
[34] = tested on: Pseudomonas aeruginosa; assay: microbe, parasite or virus in culture; details: ATCC 27853
[35] = tested on: Staphylococcus aureus; assay: Minimum inhibitory concentration against vancomycin intermediate Staphylococcus aureus MU 3; assay type: functional
[36] = tested on: Mus musculus; assay: Efficacy against mice infected with MRSA-32 upon s.c. administration; assay type: functional; details: MRSA-32, sc
[37] = tested on: Mus musculus; assay: Efficacy against mice infected with MRSA-33 upon s.c. administration; assay type: functional; details: sc
[38] = tested on: Mus musculus; assay: Efficacy against mice infected with Staphylococcus aureus ATCC 25923 upon s.c. administration; assay type: functional; details: sc
[39] = tested on: Staphylococcus aureus; assay: microbe, parasite or virus in culture
[40] = tested on: Staphylococcus aureus; assay: microbe, parasite or virus in culture; remark: listed apart in the source
[41] = tested on: Staphylococcus aureus; assay: microbe, parasite or virus in culture; remark: listed apart in the source
[42] = tested on: Staphylococcus aureus; assay: microbe, parasite or virus in culture; remark: listed apart in the source
[43] = physchem; remark: listed apart in the source
[44] = tested on: Staphylococcus aureus; assay: Minimum inhibitory concentration against methicillin susceptible Staphylococcus aureus; assay type: functional; details: Staphylococcus aureus; read-out: MIC
[45] = tested on: Staphylococcus aureus; assay: Minimum inhibitory concentration against Vancomycin intermediate Staphylococcus aureus MU 50; assay type: functional
[46] = tested on: Staphylococcus aureus; assay: Minimum inhibitory concentration against vancomycin-resistant Staphylococcus aureus (Hershey); assay type: functional
[47] = tested on: Mus musculus; assay: Protection of mice infected with MRSA-32 cell suspension after oral administration of compound; assay type: functional; details: Mus musculus, MRSA-32, po; read-out: ED50
[48] = tested on: Rattus norvegicus; assay: Amount of drug at which at 14 days of daily administration produced no venous blockage or phlebitis in rats; assay type: functional
[49] = Peak plasma concentration in phase I clinical studies at a i.v. dose of 600 mg; assay type: ADME, organism-based; design: dose 600 mg, route intravenous; details: human, iv
[50] = Half life in phase I clinical studies at a i.v. dose of 600 mg; assay type: ADME, organism-based; details: human, in vivo, iv
[51] = biological target: T1, DNA gyrase; remark: listed apart in the source

T1 sequence (P0A0K8 whole entry): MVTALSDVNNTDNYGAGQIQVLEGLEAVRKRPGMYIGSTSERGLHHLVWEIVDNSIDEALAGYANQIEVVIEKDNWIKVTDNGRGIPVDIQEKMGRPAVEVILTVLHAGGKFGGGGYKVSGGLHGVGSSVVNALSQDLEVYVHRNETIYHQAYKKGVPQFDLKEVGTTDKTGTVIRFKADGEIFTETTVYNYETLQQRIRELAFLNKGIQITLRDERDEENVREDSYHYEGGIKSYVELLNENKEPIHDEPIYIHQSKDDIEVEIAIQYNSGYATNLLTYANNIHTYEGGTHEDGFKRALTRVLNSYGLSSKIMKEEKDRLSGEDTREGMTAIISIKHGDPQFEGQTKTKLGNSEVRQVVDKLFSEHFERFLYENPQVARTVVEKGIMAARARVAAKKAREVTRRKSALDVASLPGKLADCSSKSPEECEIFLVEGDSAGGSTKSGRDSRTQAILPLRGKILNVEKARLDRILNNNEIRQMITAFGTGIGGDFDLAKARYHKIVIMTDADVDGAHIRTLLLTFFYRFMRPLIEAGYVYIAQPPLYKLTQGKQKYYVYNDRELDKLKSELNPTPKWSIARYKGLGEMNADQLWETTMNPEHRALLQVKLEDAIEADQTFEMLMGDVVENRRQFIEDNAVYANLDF
T1 sequence (P20831 whole entry): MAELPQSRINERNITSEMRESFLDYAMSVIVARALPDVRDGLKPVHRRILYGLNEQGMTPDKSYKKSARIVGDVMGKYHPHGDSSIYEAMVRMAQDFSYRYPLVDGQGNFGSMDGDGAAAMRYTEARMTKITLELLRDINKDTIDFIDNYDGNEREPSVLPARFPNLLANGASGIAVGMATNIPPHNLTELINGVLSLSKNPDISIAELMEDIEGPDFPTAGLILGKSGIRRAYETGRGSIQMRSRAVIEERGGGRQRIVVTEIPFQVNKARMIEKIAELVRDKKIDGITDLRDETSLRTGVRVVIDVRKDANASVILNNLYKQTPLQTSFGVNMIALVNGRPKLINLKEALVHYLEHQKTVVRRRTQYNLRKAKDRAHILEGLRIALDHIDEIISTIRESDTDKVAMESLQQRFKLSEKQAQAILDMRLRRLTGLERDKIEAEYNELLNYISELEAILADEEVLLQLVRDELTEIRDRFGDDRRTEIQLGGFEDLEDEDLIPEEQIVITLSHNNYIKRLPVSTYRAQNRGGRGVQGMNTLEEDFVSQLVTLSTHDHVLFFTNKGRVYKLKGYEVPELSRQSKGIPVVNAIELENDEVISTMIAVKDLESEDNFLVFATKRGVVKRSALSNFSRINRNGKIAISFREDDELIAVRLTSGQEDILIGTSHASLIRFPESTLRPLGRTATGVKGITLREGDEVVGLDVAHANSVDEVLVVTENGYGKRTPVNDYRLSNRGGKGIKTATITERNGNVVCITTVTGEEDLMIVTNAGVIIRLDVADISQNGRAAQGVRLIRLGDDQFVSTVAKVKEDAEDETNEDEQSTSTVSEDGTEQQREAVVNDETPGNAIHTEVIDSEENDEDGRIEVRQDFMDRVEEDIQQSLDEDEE
Sequence of DNA topoisomerase 4 subunit A (P0C1U9 whole entry): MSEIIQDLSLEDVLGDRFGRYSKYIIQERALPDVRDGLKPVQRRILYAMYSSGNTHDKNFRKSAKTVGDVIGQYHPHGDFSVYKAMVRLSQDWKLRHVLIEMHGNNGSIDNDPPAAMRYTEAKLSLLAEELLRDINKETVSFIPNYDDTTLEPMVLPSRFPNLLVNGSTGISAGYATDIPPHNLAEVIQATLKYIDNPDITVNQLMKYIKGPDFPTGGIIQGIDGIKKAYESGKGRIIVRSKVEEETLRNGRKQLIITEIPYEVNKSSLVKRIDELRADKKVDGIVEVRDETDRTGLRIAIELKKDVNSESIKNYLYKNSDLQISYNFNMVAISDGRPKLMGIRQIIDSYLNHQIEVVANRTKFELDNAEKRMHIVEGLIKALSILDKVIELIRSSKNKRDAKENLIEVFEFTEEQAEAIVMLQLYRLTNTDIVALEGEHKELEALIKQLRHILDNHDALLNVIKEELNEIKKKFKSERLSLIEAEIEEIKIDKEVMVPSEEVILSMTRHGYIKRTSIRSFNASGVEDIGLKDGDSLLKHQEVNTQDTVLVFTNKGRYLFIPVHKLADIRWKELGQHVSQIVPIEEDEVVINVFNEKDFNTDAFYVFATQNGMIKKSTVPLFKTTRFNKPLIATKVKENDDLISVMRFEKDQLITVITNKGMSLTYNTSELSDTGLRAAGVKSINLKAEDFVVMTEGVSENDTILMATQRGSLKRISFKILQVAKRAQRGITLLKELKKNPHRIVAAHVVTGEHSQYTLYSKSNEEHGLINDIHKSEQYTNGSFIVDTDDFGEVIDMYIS
Sequence of DNA gyrase (Staphylococcus aureus) (P0A0K8 2-644 limits assumed): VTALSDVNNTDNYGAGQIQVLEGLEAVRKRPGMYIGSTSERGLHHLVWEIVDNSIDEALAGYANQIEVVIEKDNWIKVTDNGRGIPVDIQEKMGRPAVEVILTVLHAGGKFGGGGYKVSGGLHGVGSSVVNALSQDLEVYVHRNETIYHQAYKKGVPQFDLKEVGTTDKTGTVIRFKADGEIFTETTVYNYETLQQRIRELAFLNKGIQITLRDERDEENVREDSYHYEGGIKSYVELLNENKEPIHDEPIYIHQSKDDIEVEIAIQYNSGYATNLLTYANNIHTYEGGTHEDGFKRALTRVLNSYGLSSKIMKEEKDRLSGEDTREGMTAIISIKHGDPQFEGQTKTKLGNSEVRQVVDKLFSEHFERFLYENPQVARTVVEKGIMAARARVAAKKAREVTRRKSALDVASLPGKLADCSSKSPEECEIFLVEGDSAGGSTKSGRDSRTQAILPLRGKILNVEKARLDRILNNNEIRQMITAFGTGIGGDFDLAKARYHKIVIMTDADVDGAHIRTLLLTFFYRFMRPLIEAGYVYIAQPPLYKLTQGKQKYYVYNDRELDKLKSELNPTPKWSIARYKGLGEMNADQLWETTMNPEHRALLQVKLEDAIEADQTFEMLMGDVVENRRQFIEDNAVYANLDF
Sequence of DNA gyrase (Staphylococcus aureus) (P20831 whole entry partner): as the sequence (P20831 whole entry) above
Sequence of DNA topoisomerase 4 subunit A (Staphylococcus aureus) (P0C1U9 whole entry): as the sequence (P0C1U9 whole entry) above

Compound | MIC [1] [µg/mL] | MIC [2] [µg/mL] | MIC [3] [µg/mL] | pKa [9] | MIC [10] [µg/mL] | MIC [11] [µg/mL] | MIC [12] [µg/mL] | MIC [13] [ng/mL] | MIC [14] [µg/mL] | MPC [15] [µg/mL] | MIC [16] [µg/mL] | MIC [17] [µg/mL] | MIC [18] [µg/mL] | FRE [19] | FRE [20] | FRE [21] | MPC [22] [µg/mL] | MPC [23] [µg/mL] | MIC [27] [µg/mL] | MIC [34] [µg/mL] | also measured
CC1CCc2c(N3CCC(O)CC3)c(F)cc3c(=O)c(C(=O)O)cn1c23 (stereo not drawn) [NADIFLOXACIN] | 32 (≈ 88.8 µM) | 1 (≈ 2.77 µM) | 1 (≈ 2.77 µM) | 6.8 | – | – | – | – | – | – | – | – | – | – | – | – | – | – | – | – | MIC [4]: 0.25 µg/mL (≈ 0.694 µM); IC50 [5]: 27.7 µM; IC50 [6]: > 27.7 µM; CC50 [7]: > 10 µg/mL; CC50 [8]: 25 µg/mL (≈ 69.4 µM)
COc1c(N2CCNC(C)C2)c(F)cc2c(=O)c(C(=O)O)cn(C3CC3)c12 (stereo not drawn) [GATIFLOXACIN] | – | – | – | 5.97 | 0.25 (≈ 0.666 µM) | 0.25 (≈ 0.666 µM) | 0.25 (≈ 0.666 µM) | 8 (≈ 0.0213 µM) | 0.5 (≈ 1.33 µM) | 8 | 0.1 (≈ 0.266 µM) | 0.5 (≈ 1.33 µM) | 0.25 (≈ 0.666 µM) | 0.000451 | 0.0041 | 3.51e-06 | 8 | 14 | 0.06 (≈ 0.16 µM) | 4 (≈ 10.7 µM) | MPC/MIC [24]: 2; MPC/MIC [25]: 3.5; MPC/MIC [26]: 2; logD [28]: -0.79; pKa [29]: 9.82; logD [30]: -1.14; MIC [31]: 0.5 µg/mL (≈ 1.33 µM); MIC [32]: 0.5 µg/mL (≈ 1.33 µM); MIC [33]: 0.03 µg/mL (≈ 0.0799 µM)
COc1c(N2C[C@@H]3CCCN[C@@H]3C2)c(F)cc2c(=O)c(C(=O)O)cn(C3CC3)c12 [MOXIFLOXACIN] | – | – | – | – | 0.12 (≈ 0.299 µM) | 0.25 (≈ 0.623 µM) | 0.25 (≈ 0.623 µM) | 8 (≈ 0.0199 µM) | 0.5 (≈ 1.25 µM) | 10 | 0.06 (≈ 0.149 µM) | 0.5 (≈ 1.25 µM) | 0.25 (≈ 0.623 µM) | 4.51e-05 | 2.1e-06 | 3.1e-05 | 10 | 10 | 0.06 (≈ 0.149 µM) | 4 (≈ 9.96 µM) | MIC [35]: 4 µg/mL (≈ 9.96 µM); ED50 [36]: 30 mg/kg; ED50 [37]: 66.1 mg/kg; ED50 [38]: 0.6 mg/kg; MIC [39]: 4 µg/mL (≈ 9.96 µM); MIC [40]: 2 µg/mL (≈ 4.98 µM); MIC [41]: 2 µg/mL (≈ 4.98 µM); MIC [42]: 2 µg/mL (≈ 4.98 µM)
N[C@@H]1[C@H]2CN(c3nc4c(cc3F)c(=O)c(C(=O)O)cn4-c3ccc(F)cc3F)C[C@@H]12 [TROVAFLOXACIN] | – | – | – | 4.45 | – | – | – | – | – | – | – | – | – | – | – | – | – | – | – | – | logD [28]: 0.42; pKa [29]: 8.02; pKa [43]: 8.13; logD [30]: -0.35
C[C@H]1CCc2c(N3CCC(O)CC3)c(F)cc3c(=O)c(C(=O)O)cn1c23.N=C(N)NCCC[C@H](N)C(=O)O.O.O.O.O | 1 | 0.032 | 0.032 | – | 0.12 | 0.06 | 0.25 | 8 | 0.5 | 2 | 0.03 | 0.25 | 0.06 | <6.51e-09 | <3.51e-09 | <4.1e-07 | 2 | 2 | 0.015 | 4 | MIC [35]: 2 µg/mL; MIC [44]: 0.03 µg/mL; MIC [4]: 0.016 µg/mL; ED50 [36]: 27.8 mg/kg; ED50 [37]: 38.3 mg/kg; MIC [45]: 1 µg/mL; MIC [46]: 0.5 µg/mL; ED50 [47]: 93.6 mg/kg; ED50 [38]: 0.59 mg/kg; NOEL [48]: 250 mg/kg; Cmax [49]: 4000 ng/mL; half-life [50]: 360 min; IC50 [51]: 8.24 µM; IC50 [6]: 8.24 µM; MIC [31]: 0.12 µg/mL; MIC [32]: 0.12 µg/mL; MIC [33]: 0.12 µg/mL; MIC [40]: 1 µg/mL; MIC [41]: 1 µg/mL; MIC [42]: 1 µg/mL
